The values that follow come from paper PMC7972453, “The allosteric modulation of complement C5 by knob domain peptides” (eLife, 2021).

Like-named read-outs stand apart in the source and are kept apart here. Bridges are numbered along the chain shown (N, C = ends). Where no end group is shown, it is not given here.

One test addresses human C5b-6 (Homo sapiens, UniProt P01031+P13671). Nature of the test: SPR single-cycle kinetics, binding to C5b-6. More on the design: Upon cleavage of C5a, the remaining domains of the α-chain undergo a substantial conformational change; purchased Complement Technologies, Tyler, TX. The method, then:
On a Biacore 8K (GE Healthcare, Amersham, UK), human C5b was immobilised on a CM5 chip (GE Healthcare, Amersham, UK). Flow cells were activated using a standard immobilisation protocol: EDC/NHS was mixed at 1:1 ratio (flow rate, 10 µL/min; contact time, 30 s). C5b, at 1 µg/mL, or C5b-6 (Complement Technologies, Tyler, TX), at 2 µg/mL, in pH 4.5 sodium acetate buffer, were immobilised on flow cell two only (flow rate, 10 µL/min; contact time, 420 s). Finally, ethanolamine was applied to both flow cells (flow rate, 10 µL/min; contact time, 420 s). A final immobilisation level of 500–700 RUs was obtained for C5b and 1000–1150 RUs were obtained for C5b-6. Single-cycle kinetics were measured using a seven-point, threefold serial dilution (spanning a range of 1 µM to 1.4 nM) in HBS-EP buffer (GE Healthcare, Amersham, UK). A high flow rate of 40 µL/min was used, with a contact time of 300 s and a dissociation time of 2700 s. Binding to the reference surface was subtracted, and the data were fitted to a single-site binding model using Biacore evaluation software. All sensorgrams were inspected for evidence of mass transport limitation using the flow rate-independent component of the mass transfer constant (tc).
Table 4.2. SPR single-cycle kinetics of knob domains binding to human C5b-6.

The subject of test [1] is alternative pathway C5b deposition (complement C5). The test can be described thus: Alternative pathway C5b deposition ELISA. Conditions: n=3 (K8: n=5; K92: n=4), ND* = Not detected. In kind it is biochemical, human. The text has this:
Figure 1. Functional modulation of C5 via knob domain peptides. […] Following activation of C1q via antibody Fc, C4 and C2 are cleaved and form C4bC2a (the CP C3 convertase) which cleaves C3 into C3a (not shown) and C3b. At high C3b concentrations, C4bC2aC3b (the CP […]) forms and cleaves C5 into C5a and C5b. C5b associates with C6 and forms the membrane attack complex (MAC) with C7, C8, and multiple copies of C9. […] In the presence of factor B and factor D, C3bBb (the AP C3 convertase) generates additional C3b, prompting formation of C3bBbC3b (the AP C5 convertase), which cleaves C5 into C5a and C5b, driving MAC formation. CP-driven ELISAs (C) and AP-driven ELISAs (D) are shown. For both pathways, the inhibition of C3d (the surface-associated domain of C3b, which is upstream of C5 inhibition), C5a release, and C5b neo-epitope formation and C9 deposition were tracked within the MAC. […] For the AP assays, 5% serum (v/v) gives a putative C5 concentration of 20 nM. For the CP assays, 1% serum (v/v) gives a putative C5 concentration of 4 nM, based on a reported C5 serum concentration of 397 nM/75 µg/mL ([Sjöholm, 1975]).
For the C5b ELISA, assays were run using the CP and AP Complement functional ELISA kits (Svar Life Science, Malmö, Sweden). For sample preparation, serum was diluted as per the respective protocol for the CP and AP assays. […]
(In an ELISA, binding on a coated surface is turned into a signal by an enzyme label.)

In test [2] the test system is alternative pathway mediated C5a release (complement C5). The test can be described thus: Inhibition of alternative pathway mediated C5a release (ELISA). In kind it is biochemical, human. To be noted: AP C5a release; n=3 (K8: n=4); ND* = Not detected. As to the method: For the C5b ELISA, assays were run using the CP and AP Complement functional ELISA kits (Svar Life Science, Malmö, Sweden). For sample preparation, serum was diluted as per the respective protocol for the CP and AP assays. Serial dilutions of peptides were prepared and allowed to incubate with serum for 15 min at room temperature prior to plating.
For the C5a ELISA, assays were run using the Complement C5a Human ELISA Kit (Invitrogen, Renfrew, UK). For sample preparation, at the end of the 37°C incubation of the serum/peptide samples on the C5b ELISA plate, 50 µL of the diluted, activated serum was transferred to a C5a ELISA plate containing 50 µL/well of assay buffer. All subsequent experimental steps were performed as described in the protocol.
Table 1.4. Inhibition of alternative pathway mediated C5a release.
Data from n=3, unless otherwise stated

Chain of human C5b-6 (P01031 752-1676 limits assumed): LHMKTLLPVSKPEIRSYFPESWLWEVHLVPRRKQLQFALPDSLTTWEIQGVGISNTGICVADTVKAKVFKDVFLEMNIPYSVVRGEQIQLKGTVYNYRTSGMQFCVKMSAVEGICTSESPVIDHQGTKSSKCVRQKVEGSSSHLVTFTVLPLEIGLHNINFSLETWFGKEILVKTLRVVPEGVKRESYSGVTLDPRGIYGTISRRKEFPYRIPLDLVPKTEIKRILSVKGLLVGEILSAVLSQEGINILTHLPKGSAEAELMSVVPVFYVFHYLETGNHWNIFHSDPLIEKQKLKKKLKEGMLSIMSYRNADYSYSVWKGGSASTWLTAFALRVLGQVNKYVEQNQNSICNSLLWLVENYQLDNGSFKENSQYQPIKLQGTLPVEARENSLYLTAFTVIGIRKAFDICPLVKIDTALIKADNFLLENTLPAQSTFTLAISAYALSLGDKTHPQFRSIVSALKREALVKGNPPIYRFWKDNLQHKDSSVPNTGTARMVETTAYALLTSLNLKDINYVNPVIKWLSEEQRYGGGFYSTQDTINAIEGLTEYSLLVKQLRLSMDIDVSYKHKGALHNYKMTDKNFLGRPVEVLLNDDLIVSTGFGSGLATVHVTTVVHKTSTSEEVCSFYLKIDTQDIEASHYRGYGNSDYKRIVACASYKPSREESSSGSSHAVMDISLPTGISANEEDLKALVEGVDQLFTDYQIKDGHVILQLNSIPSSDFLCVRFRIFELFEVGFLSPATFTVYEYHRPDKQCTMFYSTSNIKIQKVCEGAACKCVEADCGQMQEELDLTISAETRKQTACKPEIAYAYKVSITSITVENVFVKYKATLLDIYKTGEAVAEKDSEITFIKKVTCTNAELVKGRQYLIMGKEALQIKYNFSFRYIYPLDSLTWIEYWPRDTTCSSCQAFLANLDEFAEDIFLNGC
Chain of human C5b-6 (P01031 19-673 limits assumed): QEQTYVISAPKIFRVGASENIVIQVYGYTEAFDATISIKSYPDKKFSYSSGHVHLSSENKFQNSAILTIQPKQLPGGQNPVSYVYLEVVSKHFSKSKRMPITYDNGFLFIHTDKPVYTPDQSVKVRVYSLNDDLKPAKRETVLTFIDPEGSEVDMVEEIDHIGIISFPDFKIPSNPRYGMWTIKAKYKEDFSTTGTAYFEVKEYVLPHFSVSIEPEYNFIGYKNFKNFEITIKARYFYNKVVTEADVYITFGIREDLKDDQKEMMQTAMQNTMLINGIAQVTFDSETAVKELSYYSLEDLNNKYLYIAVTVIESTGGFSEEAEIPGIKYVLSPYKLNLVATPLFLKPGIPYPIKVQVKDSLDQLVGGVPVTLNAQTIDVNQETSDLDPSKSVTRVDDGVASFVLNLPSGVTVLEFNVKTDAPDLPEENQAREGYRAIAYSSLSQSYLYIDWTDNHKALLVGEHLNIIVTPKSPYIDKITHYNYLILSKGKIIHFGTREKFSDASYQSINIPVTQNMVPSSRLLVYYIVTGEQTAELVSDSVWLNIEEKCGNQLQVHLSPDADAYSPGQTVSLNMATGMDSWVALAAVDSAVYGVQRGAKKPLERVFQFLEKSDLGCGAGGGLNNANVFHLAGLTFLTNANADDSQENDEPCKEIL
Chain of human C5b-6 (P13671 22-934 partner): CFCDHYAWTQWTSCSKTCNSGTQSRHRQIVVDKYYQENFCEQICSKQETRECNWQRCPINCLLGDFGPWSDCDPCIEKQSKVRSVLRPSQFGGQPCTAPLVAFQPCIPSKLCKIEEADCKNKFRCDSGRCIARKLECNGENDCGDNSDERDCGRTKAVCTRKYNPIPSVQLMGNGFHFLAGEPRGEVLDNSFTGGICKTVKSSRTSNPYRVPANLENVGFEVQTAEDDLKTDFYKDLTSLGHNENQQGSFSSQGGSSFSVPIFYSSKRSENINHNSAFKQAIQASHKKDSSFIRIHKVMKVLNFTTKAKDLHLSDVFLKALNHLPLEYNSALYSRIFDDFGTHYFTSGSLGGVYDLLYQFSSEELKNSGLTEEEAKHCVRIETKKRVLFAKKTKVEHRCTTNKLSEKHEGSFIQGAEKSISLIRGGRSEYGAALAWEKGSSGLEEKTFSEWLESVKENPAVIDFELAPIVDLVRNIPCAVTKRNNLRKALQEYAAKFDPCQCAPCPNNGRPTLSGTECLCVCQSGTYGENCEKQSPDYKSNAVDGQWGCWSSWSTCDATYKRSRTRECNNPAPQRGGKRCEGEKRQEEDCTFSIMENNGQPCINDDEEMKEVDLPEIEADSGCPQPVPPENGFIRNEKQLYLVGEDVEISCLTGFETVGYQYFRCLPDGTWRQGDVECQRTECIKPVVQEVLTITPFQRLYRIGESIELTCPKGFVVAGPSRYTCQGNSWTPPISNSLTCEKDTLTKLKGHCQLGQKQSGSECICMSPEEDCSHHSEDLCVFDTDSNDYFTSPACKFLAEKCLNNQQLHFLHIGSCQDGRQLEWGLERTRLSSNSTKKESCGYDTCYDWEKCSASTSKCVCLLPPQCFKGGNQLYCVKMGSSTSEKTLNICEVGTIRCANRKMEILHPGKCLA

With “SVCPDGFDWGYGCAAGSSRFCTRHDWCCYDERADSHTYGFCTGNRVENLYFQ (disulfide 3-28, 13-21, 27-41) [K8]”, the koff was 0.000295 s⁻¹ on human C5b-6 (read-out: mean koff, Biacore 8K, HBS-EP, summary of n=4); 0.000282 s⁻¹ on human C5b-6 (replicate n=1); 0.000384 s⁻¹ at human C5b-6 (replicate n=2); 0.00024 s⁻¹ at human C5b-6 (replicate n=3); 0.000277 s⁻¹ at human C5b-6 (replicate n=4). For the same sequence, the association rate constant (kon) on human C5b-6 (read-out: mean kon, Biacore 8K, HBS-EP, summary of n=4) is 12500 M⁻¹ s⁻¹; on human C5b-6 (replicate n=1), 10100 M⁻¹ s⁻¹; on human C5b-6 (replicate n=2), 12100 M⁻¹ s⁻¹; on human C5b-6 (replicate n=4), 15600 M⁻¹ s⁻¹. The Stoichiometric ratio at human C5b-6 (replicate n=1) amounted to 0.3; at human C5b-6 (replicate n=2), 0.3; on human C5b-6 (replicate n=3), 0.5; at human C5b-6 (replicate n=4), 0.3. Moreover, the Mean stoichiometric ratio at human C5b-6 (summary of n=4) was 0.4. Also, the “Average Emax” value was found to be 91.8% in test [1] (AP C5b ELISA, preincubated 15 min RT) and 71.8% in test [2]. In test [1] (AP functional ELISA kit (Svar), peptide preincubated with human serum 15 min RT, AP 5% serum, putative 20 nM C5, read-out: Geomean IC50), the IC50 is 29.2 nM.

What is called koff is the rate constant with which the complex falls apart. What is called kon is the rate constant with which the complex forms. The term IC50 denotes the midpoint of a concentration-inhibition curve.
